Data taken from US9440950B2, “Arginine methyltransferase inhibitors and uses thereof” (Epizyme, Inc., priority 2013, dated 2016).

target: T1, human PRMT1 (Homo sapiens, UniProt Q99873); assay: PRMT1 Biochemical Assay; conditions: peptide substrate, 3H-SAM Flashplate assay
T1 construct: GST-tagged PRMT1; made in house; host or cells: High Five insect cells (baculovirus, pFastBacI)
Text: S-adenosylmethionine (SAM), S-adenosylhomocysteine (SAH), bicine, Tween20, dimethylsulfoxide (DMSO), bovine skin gelatin (BSG), and Tris(2-carboxyethyl)phosphine hydrochloride solution (TCEP) were purchased from Sigma-Aldrich at the highest level of purity possible. ^3H-SAM was purchase from American Radiolabeled Chemicals with a specific activity of 80 Ci/mmol. 384-well streptavidin Flashplates were purchased from PerkinElmer.
Peptide representative of human histone H4 residues 36-50 was synthesized with an N-terminal linker-affinity tag motif and a C-terminal amide cap by 21st Century Biochemicals. The peptide was purified by high-performance liquid chromatography (HPLC) to greater than 95% purity and confirmed by liquid chromatography mass spectrometry (LC-MS). The sequence was Biot-Ahx-[…]-amide (SEQ ID NO.: 1).
Full-length human PRMT1 isoform 1 (NM_001536.5) transcript clone was amplified from an HEK 293 cDNA library, incorporating flanking 5′ sequence encoding a FLAG tag ([…]) (SEQ ID NO.:2) fused directly to Met 1 of PRMT1. The amplified gene was subcloned into pFastBacI (Life Technologies) modified to encode an N-terminal GST tag and a TEV cleavage sequence ([…] […] […] […])(SEQ ID NO.:3) fused to Asp of the Flag tag of PRMT1.
Recombinant baculovirus were generated according to Bac-to-Bac kit instructions (Life Technologies). Protein over-expression was accomplished by infecting exponentially growing High Five insect cell culture at 1.5×10^6 cell/ml with 1:100 ratio of virus. Infections were carried out at 27° C. for 48 hours, harvested by centrifugation, and stored at −80° C. for purification.
GST-tagged PRMT1 was eluted with 50 mM Tris, 2 mM glutathione, pH 7.8, dialysed in buffer A and concentrated to 1 mg/mL. The purity of recovered protein was 73%. Reference: Wasilko, D. J. and S. E. Lee: “TIPS: titerless infected-cells preservation and scale-up” Bioprocess J., 5 (2006), pp. 29-32.
General Procedure for PRMT1 Enzyme Assays on Peptide Substrates.
The assays were all performed in a buffer consisting of 20 mM Bicine (pH=7.6), 1 mM TCEP, 0.005% BSG, and 0.002% Tween 20, prepared on the day of use. Compounds in 100% DMSO (1 ul) were spotted into a polypropylene 384-well V-bottom plates (Greiner) using a Platemate Plus outfitted with a 384-channel head (Thermo Scientific). DMSO (1 ul) was added to Columns 11, 12, 23, 24, rows A-H for the maximum signal control and 1 ul of SAH, a known product and inhibitor of PRMT1, was added to columns 11, 12, 23, 24, rows I-P for the minimum signal control. A cocktail (40 ul) containing the PRMT1 enzyme was added by Multidrop Combi (Thermo-Fisher). The compounds were allowed to incubate with PRMT1 for 30 min at room temperature, then a cocktail (10 ul) containing SAM and peptide was added to initiate the reaction (final volume=51 ul). The final concentrations of the components were as follows: PRMT1 was 0.5 nM, ^3H-SAM was 200 nM, non-radiolabeled SAM was 1.5 uM, peptide was 20 nM, SAH in the minimum signal control wells was 1 mM, and the DMSO concentration was 2%. The assays were stopped by the addition of non-radiolabeled SAM (10 ul) to a final concentration of 300 uM, which dilutes the ^3H-SAM to a level where its incorporation into the peptide substrate is no longer detectable. 50 ul of the reaction in the 384-well polypropylene plate was then transferred to a 384-well Flashplate and the biotinylated peptides were allowed to bind to the streptavidin surface for at least 1 hour before being washed once with 0.1% Tween20 in a Biotek ELx405 plate washer. The plates were then read in a PerkinElmer TopCount plate reader to measure the quantity of ^3H-labeled peptide bound to the Flashplate surface, measured as disintegrations per minute (dpm) or alternatively, referred to as counts per minute (cpm).
Where dpm=disintegrations per minute, cmpd=signal in assay well, and min and max are the respective minimum and maximum signal controls. […]

T1 sequence (Q99873 with tags, fused parts or gaps): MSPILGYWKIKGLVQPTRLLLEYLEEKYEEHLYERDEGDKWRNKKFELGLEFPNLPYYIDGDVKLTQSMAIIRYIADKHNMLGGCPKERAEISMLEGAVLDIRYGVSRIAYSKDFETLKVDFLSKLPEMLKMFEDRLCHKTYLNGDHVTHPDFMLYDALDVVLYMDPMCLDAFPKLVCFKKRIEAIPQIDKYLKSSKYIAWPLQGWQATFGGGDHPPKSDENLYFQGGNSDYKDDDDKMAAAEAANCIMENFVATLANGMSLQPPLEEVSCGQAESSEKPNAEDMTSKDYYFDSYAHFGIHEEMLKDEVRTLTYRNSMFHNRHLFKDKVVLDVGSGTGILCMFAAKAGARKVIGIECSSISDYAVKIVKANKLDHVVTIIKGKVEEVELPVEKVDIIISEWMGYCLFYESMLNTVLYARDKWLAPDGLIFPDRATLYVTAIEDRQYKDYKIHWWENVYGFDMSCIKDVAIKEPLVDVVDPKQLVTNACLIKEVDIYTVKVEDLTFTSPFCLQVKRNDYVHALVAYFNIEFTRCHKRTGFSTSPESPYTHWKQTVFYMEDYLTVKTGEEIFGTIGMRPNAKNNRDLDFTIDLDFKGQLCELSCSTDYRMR

Row | SMILES | IC50
1 | CN(CCN)Cc1c[nH]nc1-c1cncc(S(C)(=O)=O)c1 [Compound 4] | 1010 to 3000 nM
2 | COc1ccc(-c2n[nH]cc2CN(C)CCN)cn1 [Compound 5] | 101 to 1000 nM
3 | Cc1cncc(-c2n[nH]cc2CN(C)CCN)c1 [Compound 6] | ≥ 10000 nM
4 | CN(CCN)Cc1c[nH]nc1-c1cncc(F)c1 [Compound 7] | ≤ 100 nM
5 | CN(CCN)Cc1c[nH]nc1-c1cccnc1 [Compound 8] | 101 to 1000 nM
6 | CN(CCN)Cc1c[nH]nc1-c1ccncc1 [Compound 9] | ≤ 100 nM
7 | Cc1cc(-c2n[nH]cc2CN(C)CCN)cnc1Cl [Compound 10] | ≤ 100 nM
8 | COc1cc(-c2n[nH]cc2CN(C)CCN)ccn1 [Compound 11] | 101 to 1000 nM
9 | COc1cc(-c2n[nH]cc2CN(C)CCN)c(Cl)cn1 [Compound 12] | 1010 to 3000 nM
10 | CN(CCN)Cc1c[nH]nc1-c1ccc(C(F)(F)F)nc1 [Compound 13, N^1-methyl-N^1-((3-(6-(trifluoromethyl)pyridin-3-yl)-1H-pyrazol-4-yl)methyl)ethane-1,2-diamine] | ≤ 100 nM
11 | COc1ncc(Cl)cc1-c1n[nH]cc1CN(C)CCN [Compound 14] | 1010 to 3000 nM
12 | COc1ncccc1-c1n[nH]cc1CN(C)CCN [Compound 15] | 101 to 1000 nM
13 | COc1ccncc1-c1n[nH]cc1CN(C)CCN [Compound 16] | 101 to 1000 nM
14 | Cc1ccncc1-c1n[nH]cc1CN(C)CCN [Compound 17] | 101 to 1000 nM
15 | CN(CCN)Cc1c[nH]nc1-c1cncc(C#N)c1 [Compound 18] | 101 to 1000 nM
16 | CN(CCN)Cc1c[nH]nc1-c1cncc(Cl)c1 [Compound 19] | ≤ 100 nM
17 | CN(CCN)Cc1c[nH]nc1-c1ccc(N2CCOCC2)nc1 [Compound 20] | ≤ 100 nM

Row | SMILES | IC50
18 | CC(C)CN(C)c1ccc(-c2n[nH]cc2CN(C)CCN)cn1 [Compound 21] | ≤ 100 nM
19 | CC(C)Oc1ccc(-c2n[nH]cc2CN(C)CCN)cn1 [Compound 22] | ≤ 100 nM
20 | CN(CCN)Cc1c[nH]nc1-c1ccc(N(C)Cc2ccccc2)nc1 [Compound 23] | ≤ 100 nM
21 | CCN(CC)c1ccc(-c2n[nH]cc2CN(C)CCN)cn1 [Compound 24] | 101 to 1000 nM
22 | CN(CCN)Cc1c[nH]nc1-c1ccc(NCc2ccccc2)nc1 [Compound 25] | ≤ 100 nM
23 | CC(C)CNc1ccc(-c2n[nH]cc2CN(C)CCN)cn1 [Compound 26] | ≤ 100 nM
24 | CN(CCN)Cc1c[nH]nc1-c1ccccn1 [Compound 27] | 3010 to 10000 nM
25 | CN(CCN)Cc1c[nH]nc1-c1ccc(C#N)nc1 [Compound 28, 5-(4-(((2-aminoethyl)(methyl)amino)methyl)-1H-pyrazol-3-yl)picolinonitrile] | ≤ 100 nM
26 | CN(CCN)Cc1c[nH]nc1-c1cnccc1C(F)(F)F [Compound 29] | 1010 to 3000 nM
27 | CNCCN(C)Cc1c[nH]nc1-c1ccc(N(C)CCC(C)C)nc1 [Compound 30] | ≤ 100 nM
28 | CNCCN(C)Cc1c[nH]nc1-c1ccc(N(CC(C)C)CC(C)C)nc1 [Compound 31] | ≤ 100 nM
29 | CNCCN(C)Cc1c[nH]nc1-c1ccc(N(C)CC(C)C)nc1 [Compound 32, N^1-((3-(6-(isobutyl(methyl)amino)pyridin-3-yl)-1H-pyrazol-4-yl)methyl)-N^1,N^2-dimethylethane-1,2-diamine] | ≤ 100 nM
30 | CNCCN(C)Cc1c[nH]nc1-c1ccc(N(C)C(C)C)nc1 [Compound 33, N^1-((3-(6-(isopropyl(methyl)amino)pyridin-3-yl)-1H-pyrazol-4-yl)methyl)-N^1,N^2-dimethylethane-1,2-diamine] | ≤ 100 nM
31 | CCN(CCC(C)C)c1ccc(-c2n[nH]cc2CN(C)CCNC)cn1 [Compound 34, N^1-((3-(6-(ethyl(isopentyl)amino)pyridin-3-yl)-1H-pyrazol-4-yl)methyl)-N^1,N^2-dimethylethane-1,2-diamine] | ≤ 100 nM
32 | CNCCN(C)Cc1c[nH]nc1-c1ccc(OCC(C)C)nc1 [Compound 35, N^1-((3-(6-iso-butoxypyridin-3-yl)-1H-pyrazol-4-yl)methyl)-N^1,N^2-dimethylethane-1,2-diamine] | ≤ 100 nM
33 | CCN(CC(C)C)c1ccc(-c2n[nH]cc2CN(C)CCNC)cn1 [Compound 36] | ≤ 100 nM
